Experimental data published in ChEMBL document CHEMBL5465560, “Selectivity Literature for EUbOPEN Chemogenomic Library” (2024).

Legend:
[1] = biological target: T1, Serine/threonine-protein kinase D1 (Homo sapiens) (UniProt Q15139); details: at 10 µM
T1 sequence (whole entry): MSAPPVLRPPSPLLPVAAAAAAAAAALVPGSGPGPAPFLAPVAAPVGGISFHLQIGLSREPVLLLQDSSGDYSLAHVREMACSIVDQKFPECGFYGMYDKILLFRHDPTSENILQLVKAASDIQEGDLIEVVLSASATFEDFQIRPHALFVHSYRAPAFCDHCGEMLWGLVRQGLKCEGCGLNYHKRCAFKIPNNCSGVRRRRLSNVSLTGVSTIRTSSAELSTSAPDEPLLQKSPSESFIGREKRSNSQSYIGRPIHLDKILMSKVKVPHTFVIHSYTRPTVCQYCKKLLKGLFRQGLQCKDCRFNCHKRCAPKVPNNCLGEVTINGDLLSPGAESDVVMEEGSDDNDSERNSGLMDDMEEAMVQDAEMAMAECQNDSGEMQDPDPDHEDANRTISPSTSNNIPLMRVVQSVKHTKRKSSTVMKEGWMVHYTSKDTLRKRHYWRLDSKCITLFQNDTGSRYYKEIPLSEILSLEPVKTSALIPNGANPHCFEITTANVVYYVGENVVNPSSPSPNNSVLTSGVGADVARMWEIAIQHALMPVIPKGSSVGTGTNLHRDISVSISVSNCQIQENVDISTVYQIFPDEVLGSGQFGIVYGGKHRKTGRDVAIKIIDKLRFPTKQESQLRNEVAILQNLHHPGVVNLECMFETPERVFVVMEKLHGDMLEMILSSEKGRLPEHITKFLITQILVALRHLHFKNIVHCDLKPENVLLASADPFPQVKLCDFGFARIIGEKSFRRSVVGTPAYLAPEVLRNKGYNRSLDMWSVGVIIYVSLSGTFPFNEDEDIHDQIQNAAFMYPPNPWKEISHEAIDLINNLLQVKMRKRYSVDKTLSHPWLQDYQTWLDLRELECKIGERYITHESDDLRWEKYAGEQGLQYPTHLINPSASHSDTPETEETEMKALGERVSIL

[2] = biological target: Mitogen-activated protein kinase 9 (Homo sapiens, UniProt P45984); assay: Selectivity interaction (KinomeScan (DiscoverX)) EUB0000092b MAPK9; details: at 10 µM
Chain of Mitogen-activated protein kinase 9 (P45984 whole entry, looked up): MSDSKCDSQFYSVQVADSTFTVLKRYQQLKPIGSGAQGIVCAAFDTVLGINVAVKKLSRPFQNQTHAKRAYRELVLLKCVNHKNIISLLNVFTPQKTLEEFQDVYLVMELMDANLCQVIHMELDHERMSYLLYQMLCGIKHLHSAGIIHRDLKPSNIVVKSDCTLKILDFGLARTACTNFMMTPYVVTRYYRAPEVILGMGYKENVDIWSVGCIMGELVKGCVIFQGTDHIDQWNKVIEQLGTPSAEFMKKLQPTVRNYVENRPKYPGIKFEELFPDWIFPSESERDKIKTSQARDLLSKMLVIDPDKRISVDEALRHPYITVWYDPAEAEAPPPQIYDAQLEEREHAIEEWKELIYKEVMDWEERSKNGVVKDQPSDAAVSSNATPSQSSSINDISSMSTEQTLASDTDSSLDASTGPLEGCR

[3] = biological target: T2, Serine/threonine-protein kinase Sgk2 (Homo sapiens) (UniProt Q9HBY8); assay: Selectivity interaction (ProQinase) EUB0000171b SGK2
T2 sequence (whole entry): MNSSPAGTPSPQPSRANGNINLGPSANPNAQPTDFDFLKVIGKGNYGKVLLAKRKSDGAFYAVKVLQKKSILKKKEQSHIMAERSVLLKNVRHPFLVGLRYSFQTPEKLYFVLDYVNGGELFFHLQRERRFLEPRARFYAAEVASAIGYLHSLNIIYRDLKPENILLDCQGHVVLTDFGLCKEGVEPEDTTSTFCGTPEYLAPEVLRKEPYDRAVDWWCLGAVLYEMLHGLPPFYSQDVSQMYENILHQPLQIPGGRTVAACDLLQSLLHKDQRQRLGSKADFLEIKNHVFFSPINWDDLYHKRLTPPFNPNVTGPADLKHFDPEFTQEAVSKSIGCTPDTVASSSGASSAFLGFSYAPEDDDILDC

[4] = biological target: Non-receptor tyrosine-protein kinase TYK2 (Homo sapiens, UniProt P29597); assay: Selectivity interaction (KinomeScan (DiscoverX)) EUB0000666a TYK2; details: at 10 µM
[5] = biological target: Epidermal growth factor receptor (Homo sapiens, UniProt P00533); assay: Selectivity interaction (Kinase panel (Invitrogen)) EUB0000639a EGFR; details: at 200 nM
Chain of Epidermal growth factor receptor (P00533 whole entry): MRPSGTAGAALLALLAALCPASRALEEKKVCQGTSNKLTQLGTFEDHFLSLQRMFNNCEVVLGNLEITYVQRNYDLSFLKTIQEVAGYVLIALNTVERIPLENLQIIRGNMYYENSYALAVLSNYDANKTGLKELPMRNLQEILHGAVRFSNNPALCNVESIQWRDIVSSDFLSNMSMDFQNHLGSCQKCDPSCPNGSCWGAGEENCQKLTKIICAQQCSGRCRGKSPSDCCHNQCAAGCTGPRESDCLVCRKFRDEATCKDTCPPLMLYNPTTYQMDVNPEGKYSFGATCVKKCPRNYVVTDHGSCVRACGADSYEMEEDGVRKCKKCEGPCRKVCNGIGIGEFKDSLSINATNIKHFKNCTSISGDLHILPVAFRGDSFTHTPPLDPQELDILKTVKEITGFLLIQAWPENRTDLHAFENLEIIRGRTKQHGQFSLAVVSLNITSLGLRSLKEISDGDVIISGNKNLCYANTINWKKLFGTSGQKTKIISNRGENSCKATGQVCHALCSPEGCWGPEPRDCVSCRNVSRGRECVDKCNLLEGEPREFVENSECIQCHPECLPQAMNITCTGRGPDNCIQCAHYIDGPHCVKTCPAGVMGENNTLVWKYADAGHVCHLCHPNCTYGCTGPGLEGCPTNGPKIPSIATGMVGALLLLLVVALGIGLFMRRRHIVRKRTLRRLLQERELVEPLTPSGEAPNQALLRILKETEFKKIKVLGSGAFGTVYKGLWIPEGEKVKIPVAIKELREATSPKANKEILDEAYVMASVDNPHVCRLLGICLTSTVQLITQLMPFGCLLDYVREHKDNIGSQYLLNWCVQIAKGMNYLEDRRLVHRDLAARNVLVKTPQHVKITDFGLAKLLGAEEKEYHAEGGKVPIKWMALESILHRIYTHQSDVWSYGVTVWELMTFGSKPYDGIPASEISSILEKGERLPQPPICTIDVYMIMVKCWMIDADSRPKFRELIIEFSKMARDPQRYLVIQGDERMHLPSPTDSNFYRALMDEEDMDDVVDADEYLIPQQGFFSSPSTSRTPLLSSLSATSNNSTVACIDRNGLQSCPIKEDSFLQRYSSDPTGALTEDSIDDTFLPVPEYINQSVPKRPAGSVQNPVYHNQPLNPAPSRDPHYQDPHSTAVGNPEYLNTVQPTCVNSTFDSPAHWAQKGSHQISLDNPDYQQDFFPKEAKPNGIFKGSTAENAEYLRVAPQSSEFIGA

[6] = system: Tyrosine-protein kinase ABL1 (Homo sapiens), P00519 [E255K]; assay: (§1) Selectivity interaction (SelectScreen profiling (Invitrogen)) EUB0000607a ABL1; details: at 2 µM
[7] = system: Tyrosine-protein kinase ABL1 (Homo sapiens), P00519 [G250E]; assay: as §1; details: at 2 µM
[8] = system: Tyrosine-protein kinase ABL1 (Homo sapiens), P00519 [T315I]; assay: as §1; details: at 2 µM
[9] = system: Tyrosine-protein kinase ABL1 (Homo sapiens), P00519 [Y253F]; assay: as §1; details: at 2 µM
[10] = biological target: Tyrosine-protein kinase ABL1 (Homo sapiens, UniProt P00519); assay: as §1; details: at 2 µM
[11] = biological target: CDK4/Cyclin D3 (Homo sapiens) (UniProt P11802+P30281); assay: (§2) Selectivity interaction (KinomeScan (DiscoverX)) EUB0000607a CDK4; format: protein-complex assay; details: at 10 µM
[12] = biological target: Cyclin-dependent kinase 4/cyclin D1 (Homo sapiens) (UniProt P11802+P24385); assay: as §2; format: protein-complex assay; details: at 10 µM
[13] = biological target: Receptor-type tyrosine-protein kinase FLT3 (Homo sapiens) (UniProt P36888); assay: Selectivity interaction (KinomeScan (DiscoverX)) EUB0001049a FLT3; details: at 1 µM
Chain of Receptor-type tyrosine-protein kinase FLT3 (Homo sapiens) (P36888 whole entry): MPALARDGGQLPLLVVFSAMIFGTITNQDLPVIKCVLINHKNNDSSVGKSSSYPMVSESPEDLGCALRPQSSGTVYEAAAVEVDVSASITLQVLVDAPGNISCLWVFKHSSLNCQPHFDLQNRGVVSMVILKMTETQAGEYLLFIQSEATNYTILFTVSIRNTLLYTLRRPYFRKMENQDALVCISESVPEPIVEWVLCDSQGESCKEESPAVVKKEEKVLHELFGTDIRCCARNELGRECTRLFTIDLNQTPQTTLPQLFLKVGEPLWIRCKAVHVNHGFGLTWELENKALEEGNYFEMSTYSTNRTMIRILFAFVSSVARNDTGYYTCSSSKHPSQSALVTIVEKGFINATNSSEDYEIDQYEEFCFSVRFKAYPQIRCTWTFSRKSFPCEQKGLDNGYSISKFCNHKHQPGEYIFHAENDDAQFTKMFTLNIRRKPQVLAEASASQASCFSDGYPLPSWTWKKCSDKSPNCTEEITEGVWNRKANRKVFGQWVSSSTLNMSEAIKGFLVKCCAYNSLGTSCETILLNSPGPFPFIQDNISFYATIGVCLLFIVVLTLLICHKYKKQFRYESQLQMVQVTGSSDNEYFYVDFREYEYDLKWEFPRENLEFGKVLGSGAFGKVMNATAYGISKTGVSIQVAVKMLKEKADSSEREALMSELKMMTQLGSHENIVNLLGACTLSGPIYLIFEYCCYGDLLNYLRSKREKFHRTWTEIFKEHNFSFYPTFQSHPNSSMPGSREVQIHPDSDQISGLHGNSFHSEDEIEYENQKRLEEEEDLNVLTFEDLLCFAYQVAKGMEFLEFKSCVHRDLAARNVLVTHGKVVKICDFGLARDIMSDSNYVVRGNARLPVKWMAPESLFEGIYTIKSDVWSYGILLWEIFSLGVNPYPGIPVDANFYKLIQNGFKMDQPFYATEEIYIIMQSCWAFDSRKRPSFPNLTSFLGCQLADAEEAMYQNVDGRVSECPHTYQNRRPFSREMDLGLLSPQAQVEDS

[14] = biological target: Insulin receptor (Homo sapiens, UniProt P06213); assay: Selectivity interaction (KinomeScan (DiscoverX)) EUB0000695a INSR; details: at 100 nM
Chain of Insulin receptor (P06213 28-758 limits assumed): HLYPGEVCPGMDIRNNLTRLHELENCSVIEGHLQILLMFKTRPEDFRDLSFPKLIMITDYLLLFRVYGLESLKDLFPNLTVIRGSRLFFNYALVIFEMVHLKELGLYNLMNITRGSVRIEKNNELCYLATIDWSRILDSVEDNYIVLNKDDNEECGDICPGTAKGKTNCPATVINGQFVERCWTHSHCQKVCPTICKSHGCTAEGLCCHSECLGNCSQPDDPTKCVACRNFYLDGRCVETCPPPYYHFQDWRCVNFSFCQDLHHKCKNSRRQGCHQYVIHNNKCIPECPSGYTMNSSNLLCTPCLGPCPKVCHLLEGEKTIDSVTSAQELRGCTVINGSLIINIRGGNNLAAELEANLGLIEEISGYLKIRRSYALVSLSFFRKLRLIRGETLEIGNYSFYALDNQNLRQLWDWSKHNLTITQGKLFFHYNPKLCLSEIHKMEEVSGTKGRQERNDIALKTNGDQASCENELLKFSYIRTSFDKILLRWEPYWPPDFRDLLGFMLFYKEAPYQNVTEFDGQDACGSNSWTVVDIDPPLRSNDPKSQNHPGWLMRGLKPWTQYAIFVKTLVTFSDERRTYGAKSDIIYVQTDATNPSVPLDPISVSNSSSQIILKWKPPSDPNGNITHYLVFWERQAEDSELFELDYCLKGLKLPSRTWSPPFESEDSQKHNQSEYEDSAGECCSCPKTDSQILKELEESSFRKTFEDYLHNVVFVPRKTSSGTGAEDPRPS
Chain of Insulin receptor (P06213 763-1382 limits assumed): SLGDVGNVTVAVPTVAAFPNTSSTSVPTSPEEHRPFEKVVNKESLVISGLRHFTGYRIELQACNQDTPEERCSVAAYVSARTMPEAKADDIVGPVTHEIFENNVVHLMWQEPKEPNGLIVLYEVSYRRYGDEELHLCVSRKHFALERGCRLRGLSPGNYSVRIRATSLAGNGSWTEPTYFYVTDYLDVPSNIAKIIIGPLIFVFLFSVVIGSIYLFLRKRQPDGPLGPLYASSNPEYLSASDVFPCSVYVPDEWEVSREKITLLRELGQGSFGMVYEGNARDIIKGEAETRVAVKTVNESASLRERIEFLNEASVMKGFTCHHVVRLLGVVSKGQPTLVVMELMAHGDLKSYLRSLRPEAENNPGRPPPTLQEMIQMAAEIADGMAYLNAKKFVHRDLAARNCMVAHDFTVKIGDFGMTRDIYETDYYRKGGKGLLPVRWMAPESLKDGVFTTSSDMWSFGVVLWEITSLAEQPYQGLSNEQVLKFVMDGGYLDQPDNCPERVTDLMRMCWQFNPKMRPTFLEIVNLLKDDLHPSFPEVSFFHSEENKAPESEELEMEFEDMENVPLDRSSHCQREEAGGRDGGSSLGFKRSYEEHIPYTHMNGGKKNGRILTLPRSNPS

[15] = biological target: Casein kinase I isoform gamma-2 (Homo sapiens) (UniProt P78368); details: at 10 µM
Chain of Casein kinase I isoform gamma-2 (Homo sapiens) (P78368 whole entry, looked up, canonical isoform): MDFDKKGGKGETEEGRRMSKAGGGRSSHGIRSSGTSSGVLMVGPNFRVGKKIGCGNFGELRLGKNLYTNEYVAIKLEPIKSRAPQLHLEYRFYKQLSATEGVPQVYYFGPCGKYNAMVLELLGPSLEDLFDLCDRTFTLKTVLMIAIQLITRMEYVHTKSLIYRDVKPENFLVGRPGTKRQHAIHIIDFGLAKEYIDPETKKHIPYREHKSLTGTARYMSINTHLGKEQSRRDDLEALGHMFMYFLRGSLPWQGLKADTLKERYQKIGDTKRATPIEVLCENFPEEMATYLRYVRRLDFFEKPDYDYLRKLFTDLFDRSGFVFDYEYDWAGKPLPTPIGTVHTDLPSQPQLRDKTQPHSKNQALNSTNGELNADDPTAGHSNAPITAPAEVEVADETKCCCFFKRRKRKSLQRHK

[16] = biological target: T3, Serine/threonine-protein kinase STK11 (Homo sapiens) (UniProt Q15831); assay: Selectivity interaction (KinomeScan (DiscoverX)) EUB0000045b STK11
T3 sequence (whole entry): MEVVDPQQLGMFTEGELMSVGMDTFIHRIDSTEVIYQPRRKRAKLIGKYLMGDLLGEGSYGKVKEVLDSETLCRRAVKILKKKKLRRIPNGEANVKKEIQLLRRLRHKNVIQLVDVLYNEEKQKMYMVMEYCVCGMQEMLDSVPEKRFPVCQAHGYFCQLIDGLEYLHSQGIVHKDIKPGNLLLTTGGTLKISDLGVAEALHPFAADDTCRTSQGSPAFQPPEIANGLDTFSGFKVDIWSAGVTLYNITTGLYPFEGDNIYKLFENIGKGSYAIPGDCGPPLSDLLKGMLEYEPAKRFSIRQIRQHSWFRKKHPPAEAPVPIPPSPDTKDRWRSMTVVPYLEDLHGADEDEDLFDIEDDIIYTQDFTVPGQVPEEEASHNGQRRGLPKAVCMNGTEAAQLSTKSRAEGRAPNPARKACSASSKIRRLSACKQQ

[17] = biological target: Serine/threonine-protein kinase SBK1 (Homo sapiens) (UniProt Q52WX2); assay: Selectivity interaction (KinomeScan (DiscoverX)) EUB0000045b SBK1
Chain of Serine/threonine-protein kinase SBK1 (Homo sapiens) (Q52WX2 whole entry): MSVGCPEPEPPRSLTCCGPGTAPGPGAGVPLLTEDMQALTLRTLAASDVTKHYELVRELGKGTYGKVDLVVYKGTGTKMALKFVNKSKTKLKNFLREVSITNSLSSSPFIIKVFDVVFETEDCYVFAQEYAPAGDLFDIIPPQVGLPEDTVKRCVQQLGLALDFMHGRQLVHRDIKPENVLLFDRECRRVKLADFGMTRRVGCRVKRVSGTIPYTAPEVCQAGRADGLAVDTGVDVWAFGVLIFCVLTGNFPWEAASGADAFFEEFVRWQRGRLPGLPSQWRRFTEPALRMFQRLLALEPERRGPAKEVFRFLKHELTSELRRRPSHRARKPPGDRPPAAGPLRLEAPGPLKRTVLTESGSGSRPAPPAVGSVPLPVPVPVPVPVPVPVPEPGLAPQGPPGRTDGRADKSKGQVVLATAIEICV

SMILES: CCN(CC)CCCCNc1ncc2cc(-c3cc(OC)cc(OC)c3)c(NC(=O)NC(C)(C)C)nc2n1
- % of control [1]: 100%

SMILES: CCC(=O)N1CCN(c2ccc(-n3c(=O)ccc4cnc5ccc(-c6cnc7ccccc7c6)cc5c43)cc2C(F)(F)F)CC1
- % of control [2]: 40%

SMILES: C=CC(=O)Nc1cccc(C(=O)Nc2ccc(Nc3cc(-c4[nH]c(SC)nc4C)ccn3)cc2)c1
- % of control ([3]; at 1 µM): 93%
- % of control ([3]; at 5 µM): 71%

SMILES: O=C(NOC[C@H](O)CO)c1ccc(F)c(F)c1Nc1ccc(I)cc1F
- % of control [4]: 100%

SMILES: CC[C@@H]1[C@H](F)C(=O)N[C@@H]1COc1nccc2cc(C(N)=O)c(OC)cc12 [ZIMLOVISERTIB]
- % of inhibition [5]: 1.86%

SMILES: CNC(=O)Nc1ccc(-c2nc(N3CC4CCC(C3)O4)c3cnn(C4CCC5(CC4)OCCO5)c3n2)cc1
- % of inhibition [6]: 5%
- % of inhibition [7]: 3%
- % of inhibition [8]: 0%
- % of inhibition [9]: 0%
- % of inhibition [10]: 4%
- % of control [11]: 92%
- % of control [12]: 90%

SMILES: COc1cc(Nc2nc(C)cc(-c3cnn4nc(OC)ccc34)n2)cc(C(F)(F)F)c1
- % of control [13]: 64%

SMILES: Cc1cc(F)c(C(=O)Nc2cccc(-c3nncn3C(C)C)n2)cc1-n1cnc(C2CC2)c1
- % of control [14]: 100%

SMILES: COCC(=O)NC/C=C/c1ccc2ncnc(Nc3ccc(Oc4ccc(C)nc4)c(C)c3)c2c1 [CP-724714]
- % of control [15]: 100%

SMILES: C=CC(=O)Nc1cc(-n2c(=O)ccc3cnc4ccc(-c5ccc(NS(C)(=O)=O)cc5)cc4c32)ccc1C
- % of control ([16]; at 1 µM): 79%
- % of control ([16]; at 10 µM): 100%
- % of control ([17]; at 1 µM): 4.6%
- % of control ([17]; at 10 µM): 100%
